Data published in patent US20220339271A1, “MR1 RESTRICTED T CELL RECEPTORS FOR CANCER IMMUNOTHERAPY” (Universität Basel, priority 2018, published 2022).

Key:
Type in all cases: cell-based, human
[1] = test system: MAIT cell clone SMC3; test: Stimulation of control MAIT cell clone by RL-6,7-diMe-loaded THP-1 cells
Protocol: (§1) T cell activation assays. MR1-restricted T cells (5×10^4/well unless otherwise indicated) were co-cultured with indicated target cells (5×10^4/well) in 200 μl total volume in duplicates or triplicates. T cells were cultured with indicated APCs for 24 h. In some experiments, anti-MR1 mAbs (clone 26.5) or mouse IgG2a isotype control mAbs (both at 30 μg/ml) were added and incubated for 30 min prior to the addition of T cells. E. coli lysate was prepared from the DH5α strain (Invitrogen) grown in LB medium and collected during exponential growth. Bacterial cells were washed twice in PBS and then lysed by sonication. After centrifugation (15,000 g for 15 min), the supernatant was collected, dried, and stored at −70° C. APCs were pulsed for 4 h with E. coli lysate equivalent to 10^8 CFU/ml (unless otherwise indicated) before addition of T cells. […] Supernatants were collected after 24 h and IFN-γ or GM-CSF were assessed by ELISA. Multiple cytokines and chemokines in cell culture supernatants were analyzed using the Milliplex MAP human cytokine/chemokine magnetic bead panel—Premixed 41 plex (HCYTMAG-60K-PX41; Merck Millipore) according to the manufacturer's instructions. Samples were acquired on a Flexmap 3D system (Merck Millipore) and Milliplex analyst software was used to determine mean fluorescence intensity and analyte concentration.

[2] = test system: TCR Vγ9Vδ2 clone G2B9; test: Control TCR γδ cell response to zoledronate-treated APCs in the presence of 6-FP or Ac-6-FP
Protocol: as §1, with “In some experiments, anti-MR1 mAbs (clone 26.5) or mouse IgG2a isotype control mAbs (both at 30 μg/ml) were added and incubated for 30 min prior to the addition of T cells.” left out, “cells. In some experiments, APCs were pre-incubated with 6-FP or Ac-6-FP (Schircks Laboratories) for 4 h before co-culture with T cells.” for “cells.”

[3] = test system: control MAIT cells; test: E. coli stimulation of control MAIT cells in the presence of 6-FP or Ac-6-FP; settings: for E. coli stimulation of control MAIT cells in the presence of the ligand: A375-MR1 target cells; for inhibition of activation of MAIT cells: target A375 cells expressing mutant MR1 (A375-MR1 K34A)
Protocol: (§2) T cell activation assays. MR1-restricted T cells (5×10^4/well unless otherwise indicated) were co-cultured with indicated target cells (5×10^4/well) in 200 μl total volume in duplicates or triplicates. T cells were cultured with indicated APCs for 24 h. […] E. coli lysate was prepared from the DH5α strain (Invitrogen) grown in LB medium and collected during exponential growth. Bacterial cells were washed twice in PBS and then lysed by sonication. After centrifugation (15,000 g for 15 min), the supernatant was collected, dried, and stored at −70° C. APCs were pulsed for 4 h with E. coli lysate equivalent to 10^8 CFU/ml (unless otherwise indicated) before addition of T cells. In some experiments, APCs were pre-incubated with 6-FP or Ac-6-FP (Schircks Laboratories) for 4 h before co-culture with T cells. In control experiments with TCR γδ cells expressing TCR Vγ9 and Vδ2 chains, the APCs were first treated for 6 h with zoledronate (10 μg/ml) prior to T cell addition. Activation experiments with plate-bound recombinant human β2m-MR1-Fc were performed by coating β2m-MR1-Fc onto 96 well plates (4 μg/ml) and loading with cartridge-purified cell lysates for 4 h at 37° C. before washing twice and adding T cells. Supernatants were collected after 24 h and IFN-γ or GM-CSF were assessed by ELISA. Multiple cytokines and chemokines in cell culture supernatants were analyzed using the Milliplex MAP human cytokine/chemokine magnetic bead panel—Premixed 41 plex (HCYTMAG-60K-PX41; Merck Millipore) according to the manufacturer's instructions. Samples were acquired on a Flexmap 3D system (Merck Millipore) and Milliplex analyst software was used to determine mean fluorescence intensity and analyte concentration.

[4] = test system: MR1T cell clones; test: MR1T cell clone stimulation by A375-MR1 cells in the presence of 6-FP or Ac-6-FP; settings: for MR1T cell stimulation in the presence of the ligand: A375-MR1 target cells; for inhibition of activation of MR1T cells: target A375 cells expressing mutant MR1 (A375-MR1 K34A)
Protocol: as §2

## Cc1nc2c(=O)[nH]c(=O)nc-2n(C[C@H](O)[C@H](O)[C@H](O)CO)c1C [RL-6,7-diMe, 6,7-dimethyl-8-D-ribityllumazine]
[1]
  stimulation of control MAIT cell clone: stimulated in MR1-dependent manner

## Nc1nc2ncc(C=O)nc2c(=O)[nH]1 [Clone 6-FP, 6-formyl pterin]
[2]
  control TCR γδ cell responses to cognate antigen presented by the same APCs (compound toxicity): did not disrupt
[3]
  E. coli stimulation of control MAIT cells in the presence of the ligand: impaired
  inhibition of activation of MAIT cells: failed to inhibit
[4]
  MR1T cell stimulation in the presence of the ligand: impaired
  inhibition of activation of MR1T cells: failed to inhibit

## CC(=O)Nc1nc2ncc(C=O)nc2c(=O)[nH]1 [Ac-6-FP, acetyl-6-formyl pterin]
[2]
  control TCR γδ cell responses to cognate antigen presented by the same APCs (compound toxicity): did not disrupt
[3]
  E. coli stimulation of control MAIT cells in the presence of the ligand: impaired
  inhibition of activation of MAIT cells: failed to inhibit
[4]
  MR1T cell stimulation in the presence of the ligand: impaired
  inhibition of activation of MR1T cells: failed to inhibit
